# Key:
# [1] = tested on: adult patients with essential tremor; assay: Example 16 Part B: QUEST total score; type: in vivo, human; conditions: for QUEST total score, LS mean change from randomization baseline (Day 42): Formula (I) group; for QUEST total score, LS mean change from pre-dose baseline: Part B OLT
# Text: Patients were scheduled for Safety Follow-up on Day 70 (±1 day) in the clinic for the final clinical trial assessment.
# [2] = tested on: adult patients with essential tremor; assay: Essential tremor trial Example 16 Part A (open label 20-40 mg): TETRAS efficacy; type: in vivo, human; conditions: for TETRAS CULS Score CFB LS Mean / TETRAS PS Item 6: Archimedes Spiral (Left) Score CFB LS Mean / TETRAS PS Item 6: Archimedes Spiral (Right) Score CFB LS Mean / TETRAS PS Item 7: Handwriting Score CFB LS Mean / TETRAS PSTS Score CFB LS Mean / TETRAS ULS Score CFB LS Mean / TETRAS CULS CTA LS Mean % / TETRAS PS Item 6: Archimedes Spiral (Left) CTA LS Mean % / TETRAS PS Item 6: Archimedes Spiral (Right) CTA LS Mean % / TETRAS PS Item 7: Handwriting CTA LS Mean % / TETRAS PSTS CTA LS Mean % / TETRAS ULS CTA LS Mean %: FAS
# Protocol: A two part trial (Part A and Part B as described below) was conducted to study the efficacy, safety, tolerability, and pharmacokinetics of the compound of formula (I) in adult patients with essential tremor (ET).
# Participants were males and females ages 18 and older with a clinical diagnosis of ET. Participants who have a history of any other medical, neurological, or psychiatric condition that may explain or cause tremor were excluded. Participants who have previously received treatment with formula (I) in any clinical trial (including Part A of the current trial for participants enrolling in Part B) were also excluded.
# In Part A, an open label trial was conducted.
# [3] = target: T1, hCav3.2 (Homo sapiens, UniProt O95180); assay: PatchXpress patch clamp, voltage dependent block (half-inactivated state); type: cell-based
# T1 construct: expressed in transfected cells; host or cells: HEK-293
# T1 sequence (O95180 whole entry): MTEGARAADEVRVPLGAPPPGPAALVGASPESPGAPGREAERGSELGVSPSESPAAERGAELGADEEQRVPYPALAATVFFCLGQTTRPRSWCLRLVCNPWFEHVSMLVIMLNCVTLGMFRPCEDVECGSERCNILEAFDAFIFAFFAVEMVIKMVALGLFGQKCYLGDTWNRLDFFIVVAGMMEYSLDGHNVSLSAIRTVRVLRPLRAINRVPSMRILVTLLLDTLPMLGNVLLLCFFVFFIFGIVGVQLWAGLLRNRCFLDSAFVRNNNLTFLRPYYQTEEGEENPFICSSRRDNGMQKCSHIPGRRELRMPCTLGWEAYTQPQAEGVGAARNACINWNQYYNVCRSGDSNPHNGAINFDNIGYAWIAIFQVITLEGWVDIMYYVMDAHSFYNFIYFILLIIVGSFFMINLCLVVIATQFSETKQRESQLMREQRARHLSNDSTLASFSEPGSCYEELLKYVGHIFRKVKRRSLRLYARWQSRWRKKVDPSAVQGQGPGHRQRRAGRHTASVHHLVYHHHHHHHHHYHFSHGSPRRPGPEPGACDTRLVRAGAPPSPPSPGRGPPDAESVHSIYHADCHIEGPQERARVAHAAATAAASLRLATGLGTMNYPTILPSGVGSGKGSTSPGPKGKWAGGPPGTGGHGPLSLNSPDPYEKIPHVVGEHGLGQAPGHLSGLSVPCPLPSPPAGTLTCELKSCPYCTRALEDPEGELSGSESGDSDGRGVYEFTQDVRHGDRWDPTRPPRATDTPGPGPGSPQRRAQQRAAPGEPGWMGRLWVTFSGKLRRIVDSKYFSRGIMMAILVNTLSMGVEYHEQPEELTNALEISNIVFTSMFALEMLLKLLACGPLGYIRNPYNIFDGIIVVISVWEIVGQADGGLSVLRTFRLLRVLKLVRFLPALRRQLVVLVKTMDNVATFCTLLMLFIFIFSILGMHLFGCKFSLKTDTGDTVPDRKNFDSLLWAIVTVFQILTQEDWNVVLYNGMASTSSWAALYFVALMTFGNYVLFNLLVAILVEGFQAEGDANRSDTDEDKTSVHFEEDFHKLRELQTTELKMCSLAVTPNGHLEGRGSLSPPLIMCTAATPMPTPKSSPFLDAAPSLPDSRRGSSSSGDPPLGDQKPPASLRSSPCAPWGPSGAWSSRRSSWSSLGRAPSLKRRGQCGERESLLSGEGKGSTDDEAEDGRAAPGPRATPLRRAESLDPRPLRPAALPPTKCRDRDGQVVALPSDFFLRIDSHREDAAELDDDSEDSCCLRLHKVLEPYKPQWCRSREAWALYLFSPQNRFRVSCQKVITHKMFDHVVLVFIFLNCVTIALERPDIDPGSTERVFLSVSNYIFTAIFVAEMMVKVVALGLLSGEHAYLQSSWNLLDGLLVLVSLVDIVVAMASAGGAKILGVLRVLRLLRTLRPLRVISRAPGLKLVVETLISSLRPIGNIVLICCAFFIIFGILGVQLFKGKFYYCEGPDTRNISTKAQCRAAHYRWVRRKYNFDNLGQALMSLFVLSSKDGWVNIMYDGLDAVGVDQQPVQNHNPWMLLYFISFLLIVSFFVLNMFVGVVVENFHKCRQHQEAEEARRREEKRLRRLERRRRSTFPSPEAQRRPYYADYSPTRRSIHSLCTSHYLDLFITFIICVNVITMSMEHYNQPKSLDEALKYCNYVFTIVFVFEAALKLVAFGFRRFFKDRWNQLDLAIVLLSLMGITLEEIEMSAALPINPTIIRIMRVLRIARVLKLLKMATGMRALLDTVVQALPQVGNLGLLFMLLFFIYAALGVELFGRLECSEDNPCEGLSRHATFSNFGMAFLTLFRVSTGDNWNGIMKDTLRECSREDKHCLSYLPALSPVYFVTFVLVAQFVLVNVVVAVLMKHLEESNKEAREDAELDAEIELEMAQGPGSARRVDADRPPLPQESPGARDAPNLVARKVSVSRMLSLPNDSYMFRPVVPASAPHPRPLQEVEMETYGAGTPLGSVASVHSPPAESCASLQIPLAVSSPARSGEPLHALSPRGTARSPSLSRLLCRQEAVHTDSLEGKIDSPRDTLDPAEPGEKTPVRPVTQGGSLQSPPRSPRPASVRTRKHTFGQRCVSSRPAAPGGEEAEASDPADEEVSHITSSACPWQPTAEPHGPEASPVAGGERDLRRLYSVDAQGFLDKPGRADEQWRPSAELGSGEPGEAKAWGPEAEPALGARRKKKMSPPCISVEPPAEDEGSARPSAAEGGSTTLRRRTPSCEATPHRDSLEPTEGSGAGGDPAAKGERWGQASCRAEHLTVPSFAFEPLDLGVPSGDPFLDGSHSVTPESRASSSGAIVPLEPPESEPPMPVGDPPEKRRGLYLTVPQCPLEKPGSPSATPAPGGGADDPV
# Protocol: The voltage dependence of calcium channel isoforms was determined by comparing the activity of resting (Tonic Block) and half-inactivated (Voltage Dependent Block) voltages across various concentrations of Formula (II). First, HEK-293 cells containing hCav3.1, hCav3.2, or hCav3.3 calcium channel isoforms were prepared by seeding at 2×10^6 cells per flask in culture for 2 days; the cells were then harvested at about 6×10^6 cells. Harvested cells were washed once in DPBS for approximately 30 minutes, and 1 mL of 1× (0.05%) Trypsin-EDTA was added, swirled, and allowed to sit on the cells for approximately 4 minutes. […]
# Pharmacology was measured during Epoch 1. Percent inhibition was calculated as: 100*((([Step 2+Step 5]/2)−Step3)/(Step 2+Step 5/2)), wherein Step 2 is the peak current measured at baseline, Step 5 is the current measured during the wash period, and Step 3 is the peak current measured during application of the compound. […]
# The effect of the compound on peak current amplitude was monitored using the voltage protocol described above and washed out after reaching steady state as determined by PatchXpress stability scripts. […] Washout current for the calculation of inhibition was determined by resetting the holding potential to the previously determined half-inactivation potential (V0.5) and measuring peak current from this holding potential. […]
# [4] = target: T2, hCav3.1 (Homo sapiens, UniProt O43497); assay: as above; type: cell-based
# T2 construct: expressed in transfected cells; host or cells: HEK-293
# T2 sequence (O43497 whole entry): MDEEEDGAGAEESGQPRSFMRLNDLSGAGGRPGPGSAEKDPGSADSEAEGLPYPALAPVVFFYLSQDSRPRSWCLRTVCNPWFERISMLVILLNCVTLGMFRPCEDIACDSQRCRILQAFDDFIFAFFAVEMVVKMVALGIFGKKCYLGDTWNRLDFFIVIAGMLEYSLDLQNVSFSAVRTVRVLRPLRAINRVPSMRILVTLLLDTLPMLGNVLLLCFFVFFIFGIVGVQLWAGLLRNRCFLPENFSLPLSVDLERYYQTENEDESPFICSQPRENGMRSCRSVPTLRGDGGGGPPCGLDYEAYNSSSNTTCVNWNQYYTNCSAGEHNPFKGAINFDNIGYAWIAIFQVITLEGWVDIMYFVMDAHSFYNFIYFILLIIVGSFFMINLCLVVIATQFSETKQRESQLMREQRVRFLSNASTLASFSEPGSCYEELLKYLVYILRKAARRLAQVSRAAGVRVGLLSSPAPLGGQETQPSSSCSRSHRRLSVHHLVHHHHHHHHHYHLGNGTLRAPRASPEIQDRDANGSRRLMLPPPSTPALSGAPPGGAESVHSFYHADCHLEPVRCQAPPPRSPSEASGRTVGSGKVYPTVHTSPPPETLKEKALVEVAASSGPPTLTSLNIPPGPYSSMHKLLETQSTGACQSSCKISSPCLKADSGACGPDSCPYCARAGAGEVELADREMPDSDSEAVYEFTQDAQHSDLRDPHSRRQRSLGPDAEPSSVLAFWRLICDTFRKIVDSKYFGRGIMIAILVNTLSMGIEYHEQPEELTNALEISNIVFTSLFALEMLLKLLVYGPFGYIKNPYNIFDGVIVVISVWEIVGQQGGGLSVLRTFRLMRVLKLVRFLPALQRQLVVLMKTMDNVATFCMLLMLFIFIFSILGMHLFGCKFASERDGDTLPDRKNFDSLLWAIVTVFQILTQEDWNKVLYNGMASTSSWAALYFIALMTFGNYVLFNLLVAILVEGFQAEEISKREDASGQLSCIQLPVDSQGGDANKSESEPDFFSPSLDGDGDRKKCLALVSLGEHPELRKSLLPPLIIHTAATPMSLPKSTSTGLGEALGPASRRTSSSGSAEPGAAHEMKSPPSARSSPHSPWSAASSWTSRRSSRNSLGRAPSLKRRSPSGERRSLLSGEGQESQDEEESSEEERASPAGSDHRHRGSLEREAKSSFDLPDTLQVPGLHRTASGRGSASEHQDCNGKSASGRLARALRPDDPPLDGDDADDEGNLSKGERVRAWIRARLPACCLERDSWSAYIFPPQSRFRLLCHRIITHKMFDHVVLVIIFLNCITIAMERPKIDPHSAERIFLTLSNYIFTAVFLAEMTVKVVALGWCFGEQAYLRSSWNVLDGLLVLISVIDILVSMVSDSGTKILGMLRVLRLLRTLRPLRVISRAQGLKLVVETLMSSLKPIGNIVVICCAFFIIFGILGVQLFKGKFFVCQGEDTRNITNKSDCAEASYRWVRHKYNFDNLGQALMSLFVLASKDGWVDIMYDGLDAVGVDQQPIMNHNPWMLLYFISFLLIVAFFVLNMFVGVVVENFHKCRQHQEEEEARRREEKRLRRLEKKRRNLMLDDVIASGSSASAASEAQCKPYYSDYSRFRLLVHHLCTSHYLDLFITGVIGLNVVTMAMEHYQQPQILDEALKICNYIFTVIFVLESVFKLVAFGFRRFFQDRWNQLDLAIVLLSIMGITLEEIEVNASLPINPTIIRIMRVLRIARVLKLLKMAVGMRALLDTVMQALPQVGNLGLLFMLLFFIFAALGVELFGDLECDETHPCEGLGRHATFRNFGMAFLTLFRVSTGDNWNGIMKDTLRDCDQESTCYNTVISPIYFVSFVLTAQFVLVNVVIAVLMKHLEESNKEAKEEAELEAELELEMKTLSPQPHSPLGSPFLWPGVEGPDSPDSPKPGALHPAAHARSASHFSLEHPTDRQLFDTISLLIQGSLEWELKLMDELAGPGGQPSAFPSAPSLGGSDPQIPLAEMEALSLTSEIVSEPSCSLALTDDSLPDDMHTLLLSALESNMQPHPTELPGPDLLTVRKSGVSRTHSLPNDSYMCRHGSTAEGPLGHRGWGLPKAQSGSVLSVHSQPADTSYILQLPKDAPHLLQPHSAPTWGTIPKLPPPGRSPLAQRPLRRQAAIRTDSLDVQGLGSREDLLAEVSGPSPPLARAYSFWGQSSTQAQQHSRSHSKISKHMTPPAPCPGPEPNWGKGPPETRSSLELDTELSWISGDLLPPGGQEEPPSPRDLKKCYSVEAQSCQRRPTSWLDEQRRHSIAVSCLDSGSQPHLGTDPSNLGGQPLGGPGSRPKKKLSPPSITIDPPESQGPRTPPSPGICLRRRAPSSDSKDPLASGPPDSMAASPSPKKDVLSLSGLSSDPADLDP
# [5] = tested on: gamma band EEG power; assay: qEEG: eyes open / eyes closed gamma band power; type: in vivo, human; conditions: Part B, beginning at 60 mg through 120 mg
# Text: It appears a maximal effect in gamma reduction was not achieved.
# The eyes open (EO) and eyes closed (EC) gamma absolute power for each individual was also estimated at specific time points across the study days.
# The population PK model was used to generate Cave for NREM sigma absolute power and concentrations for EO and EC gamma absolute power. For NREM sigma absolute power, the Cave was computed for the final day of each dose level over the EEG collection interval. For EO and EC gamma absolute power, concentrations at 4 hours post-dose and 23.75 hours post-dose were generated on the final day of each dose level. The final population PKPD models for NREM sigma absolute power and EO and EC gamma absolute power were then used to generate corresponding EEG responses.
# [6] = Day 7, change from pre-dose baseline
# [7] = Day 7, change in tremor amplitude from pre-dose baseline
# [8] = Day 14, change from pre-dose baseline
# [9] = Day 14, change in tremor amplitude from pre-dose baseline
# [10] = Day 21 (FU Assessment), change from pre-dose baseline
# [11] = Day 21 (FU Assessment), change in tremor amplitude from pre-dose baseline
smiles,measurement,setting,value
"CC(C)(C)NC(=O)CN1CCC(CNC(=O)c2cc(F)cc(Cl)c2)CC1 [compound of formula (I), N-((1-(2-(tert-butylamino)-2-oxoethyl)piperidin-4-yl)methyl)-3-chloro-5-fluorobenzamide]","QUEST total score, LS mean change from randomization baseline (Day 42)",[1]; Day 70 follow-up,1.741
same,"QUEST total score, LS mean change from pre-dose baseline",[1]; Day 7,−0.561
same,"QUEST total score, LS mean change from pre-dose baseline",[1]; Day 21,−5.933
same,"QUEST total score, LS mean change from pre-dose baseline",[1]; Day 42,−8.203
same,"QUEST total score, LS mean change from randomization baseline (Day 42)","[1]; Part B RWD, Day 56",−1.322
same,"TETRAS combined upper limb score, LS mean change from pre-dose baseline",[2]; Day 7,−1.667
same,"TETRAS upper limb score, LS mean change from pre-dose baseline",[2]; Day 7,−1.427
same,reduction in combined upper limb tremor amplitude,[2]; Day 7,16.0%
same,reduction in upper limb tremor amplitude,[2]; Day 7,23.9%
same,"TETRAS combined upper limb score, LS mean change from pre-dose baseline",[2]; Day 14,−4.239
same,"TETRAS upper limb score, LS mean change from pre-dose baseline",[2]; Day 14,−2.912
same,reduction in combined upper limb tremor amplitude,[2]; Day 14,35.8%
same,reduction in upper limb tremor amplitude,[2]; Day 14,42.8%
same,"TETRAS combined upper limb score, LS mean change from pre-dose baseline",[2]; Day 21 follow-up,−0.278
same,reduction in combined upper limb tremor amplitude,[2]; Day 21 follow-up,2.9%
same,reduction in upper limb tremor amplitude,[2]; Day 21 follow-up,20.3%
same,"TETRAS upper limb score, LS mean change from pre-dose baseline",[2]; Day 21 follow-up (1 week after cessation),−1.183
same,TETRAS CULS Score CFB LS Mean,[2]; [6],−1.667
same,TETRAS PS Item 6: Archimedes Spiral (Left) Score CFB LS Mean,[2]; [6],−0.213
same,TETRAS PS Item 6: Archimedes Spiral (Right) Score CFB LS Mean,[2]; [6],−0.091
same,TETRAS PS Item 7: Handwriting Score CFB LS Mean,[2]; [6],−0.012
same,TETRAS PSTS Score CFB LS Mean,[2]; [6],−1.990
same,TETRAS ULS Score CFB LS Mean,[2]; [6],−1.427
same,TETRAS CULS CTA LS Mean %,[2]; [7],−16.0%
same,TETRAS PS Item 6: Archimedes Spiral (Left) CTA LS Mean %,[2]; [7],−21.8%
same,TETRAS PS Item 6: Archimedes Spiral (Right) CTA LS Mean %,[2]; [7],−9.9%
same,TETRAS PS Item 7: Handwriting CTA LS Mean %,[2]; [7],−1.4%
same,TETRAS PSTS CTA LS Mean %,[2]; [7],−13.3%
same,TETRAS ULS CTA LS Mean %,[2]; [7],−23.9%
same,TETRAS CULS Score CFB LS Mean,[2]; [8],−4.239
same,TETRAS PS Item 6: Archimedes Spiral (Left) Score CFB LS Mean,[2]; [8],−0.468
same,TETRAS PS Item 6: Archimedes Spiral (Right) Score CFB LS Mean,[2]; [8],−0.346
same,TETRAS PS Item 7: Handwriting Score CFB LS Mean,[2]; [8],−0.348
same,TETRAS PSTS Score CFB LS Mean,[2]; [8],−5.163
same,TETRAS ULS Score CFB LS Mean,[2]; [8],−2.912
same,TETRAS CULS CTA LS Mean %,[2]; [9],−35.8%
same,TETRAS PS Item 6: Archimedes Spiral (Left) CTA LS Mean %,[2]; [9],−41.7%
same,TETRAS PS Item 6: Archimedes Spiral (Right) CTA LS Mean %,[2]; [9],−32.9%
same,TETRAS PS Item 7: Handwriting CTA LS Mean %,[2]; [9],−33.0%
same,TETRAS PSTS CTA LS Mean %,[2]; [9],−31.0%
same,TETRAS ULS CTA LS Mean %,[2]; [9],−42.8%
same,TETRAS CULS Score CFB LS Mean,[2]; [10],−0.278
same,TETRAS PS Item 6: Archimedes Spiral (Left) Score CFB LS Mean,[2]; [10],0.201
same,TETRAS PS Item 6: Archimedes Spiral (Right) Score CFB LS Mean,[2]; [10],−0.061
same,TETRAS PS Item 7: Handwriting Score CFB LS Mean,[2]; [10],0.330
same,TETRAS PSTS Score CFB LS Mean,[2]; [10],−1.293
same,TETRAS ULS Score CFB LS Mean,[2]; [10],−1.183
same,TETRAS CULS CTA LS Mean %,[2]; [11],−2.9%
same,TETRAS PS Item 6: Archimedes Spiral (Left) CTA LS Mean %,[2]; [11],20.7%
same,TETRAS PS Item 6: Archimedes Spiral (Right) CTA LS Mean %,[2]; [11],−6.7%
same,TETRAS PS Item 7: Handwriting CTA LS Mean %,[2]; [11],31.6%
same,TETRAS PSTS CTA LS Mean %,[2]; [11],−8.9%
same,TETRAS ULS CTA LS Mean %,[2]; [11],−20.3%
"CC(C)(C)NC(=O)CN1CCC(CNC(=O)c2cc(F)cc(Cl)c2)CC1.Cl [compound of formula (II), N-((1-(2-(tert-butylamino)-2-oxoethyl)piperidin-4-yl)methyl)-3-chloro-5-fluorobenzamide hydrochloride]",tonic block/voltage dependent block (TB/VDB) ratio,[3],2.0
same,tonic block/voltage dependent block (TB/VDB) ratio,[4],3.8
same,gamma band EEG power,[5],dose-related reduction

# Reference: patent publication US20250295646A1, “METHODS OF USE OF T-TYPE CALCIUM CHANNEL MODULATORS” (Praxis Precision Medicines, Inc., priority 2022, published 2025)
